Results reported in patent US20200316064A1, “CYCLIN-DEPENDENT KINASE 2 BIOMARKERS AND USES THEREOF” (Incyte Corporation, priority 2019, published 2020).

Tests used:
[1] = test system: Rb phosphorylated on serine 780 in CCNE1 amplified COV318 cells; assay: CDK2 pRb (S780) HTRF cellular assay; type: cell-based, human; conditions: for IC50: Homo sapiens, FIG. 10B, read-out: IC50 in p-RB S780 HTRF cellular assay
Protocol: CDK2 pRb ([…]) HTRF cellular assay enables the quantitative detection of Rb phosphorylated on […] in CCNE1 amplified COV318 cells. The assay comprised two antibodies: Europium cryptate labeled anti-Phospho-Rb […] antibody (donor) and d2 labeled anti-Rb antibody (acceptor). In brief, COV318 cells were seeded into the wells of 96-well plate at a density of 25,000 per well with 9-point, 3-fold serial diluted compounds and cultured overnight at 37 degree with 5% CO2. The final concentrations of compounds start from 3 μM. The next day cells were lysed in 70 μL 1× Phospho-total protein lysis buffer #2 (Cisbio), supplemented with 0.7 μL blocking buffer (Cisbio) and 1.4 μL protease inhibitor cocktail set III, EDTA-free (Calbiochem, 539134). 16 μL of cell lysates were mixed with 4 μL of the fluorophore-conjugated antibodies to a final concentration of 0.188 nM cryptate-labeled anti-Phospho-Rb […] antibody and 0.14 nM d2 labeled anti-Rb antibody. After 2 h of incubation at room temperature, HTRF signals were measured on the PHERAstar microplate reader (BMG Labtech), using 340 nm as excitation wavelength, a 620 nm filter for the Europium donor fluorescence, and a 665-nm filter for the acceptor fluorescence detection. HTRF signals were calculated as the HTRF ratio (ratio of fluorescence measured at 665 nm and 620 nm)×10000.

[2] = test system: CCNE1-amplified cell lines (COV318, OVCAR3, Fu-OV1, KLE, MKN1, AGS, NCI-N87); assay: Cell cycle analysis by FACS in CCNE1-amplified cell lines; type: cell-based, human; conditions: 100 nM, 16 hours, vs DMSO
Protocol: The effect of CDK2-knockdown in CCNE1-amplified versus CCNE1-non-amplified cell lines was evaluated. CCNE1-amplified cell lines (Fu-OV1 and KLE) or CCNE1-non-amplified cell lines (COV504 and Igrov1) were treated with a control (“ctrl”) or CDK2-specific small interfering RNAs (“siRNAs”) (“CDK2 siRNA-1” and “CDK2 siRNA-2”) (FIGS. 2A and 2B and 3A and 3B). Seventy-two hours after transfection with the siRNAs, the cells were harvested and subjected to cell cycle analysis by fluorescence activated cell sorting (“FACS”) (FIGS. 2A and 3A). Knockdown of CDK2 was confirmed by western blot (FIGS. 2B and 3B).
The effect of CDK4/6-inhibition in CCNE1-amplified versus CCNE1-non-amplified cell lines was evaluated.
A similar experiment was performed in a larger set of CCNE1-amplified cell lines (COV318 and OVCAR3) and CCNE1-non-amplified cell lines (COV504, OV56, and Igrov1) (FIG. 6).
Next, the impact of CDK2-knockdown in these cells was evaluated. Mkn1, Ags, and NCI-N87 cells were treated with control or CDK2-specific siRNA. Three days-post-siRNA transfection, cell cycle phase distribution of the cells was evaluated by FACS. […]
Bulk DNA was stained with DAPI. Compound-treated and DMSO treated control cells were acquired with CytoFlex (Beckman Coulter) and were analyzed using the Flow Jo software. […]

CDK2/Cyclin E1 = target: T1, CDK2/Cyclin E1 (Homo sapiens, UniProt P24941); assay: CDK2/Cyclin E1 HTRF enzyme activity assay (Example A); type: biochemical; conditions: 1 mM ATP
T1 construct: utilize full-length human CDK2 co-expressed as N-terminal GST-tagged protein; GST (N); purchased Carna 04-165; host or cells: baculovirus expression system
Protocol: CDK2/Cyclin E1 enzyme activity assays utilize full-length human CDK2 co-expressed as N-terminal GST-tagged protein with FLAG-Cyclin E1 in a baculovirus expression system (Carna Product Number 04-165). Assays are conducted in white 384-well polystyrene plates in a final reaction volume of 8 μL. CDK2/Cyclin E1 (0.25 nM) is incubated with compounds (40 nL serially diluted in DMSO) in the presence of ATP (50 μM or 1 mM) and 50 nM ULight™-labeled eIF4E-binding protein 1 (THR37/46) peptide (PerkinElmer) in assay buffer (containing 50 mM HEPES pH 7.5, 1 mM EGTA, 10 mM MgC2, 2 mM DTT, 0.05 mg/mL BSA, and 0.01% Tween 20) for 60 minutes at room temperature. The reactions are stopped by the addition of EDTA and Europium-labeled anti-phospho-4E-BP1 antibody (PerkinElmer), for a final concentration of 15 mM and 1.5 nM, respectively. HTRF signals are read after 1 hour at room temperature on a PHERAstar FS plate reader (BMG Labtech). Data is analyzed with IDBS XLFit and GraphPad Prism 5.0 software using a three or four parameter dose response curve to determine IC50 for each compound.

SMILES | IC50 [1] [µM] | IC50 (CDK2/Cyclin E1) [µM] | further results
C[C@@]1(O)CCC[C@H]1n1c(=O)ccc2cnc(NC3CCN(S(C)(=O)=O)CC3)nc21 [Compound A, 8-((1R,2R)-2-hydroxy-2-methylcyclopentyl)-2-((1-(methylsulfonyl)piperidin-4-yl)amino)pyrido[2,3-d]pyrimidin-7(8H)-one] | 0.037 | – | Rb phosphorylation on serine 780 [1]: inhibited Rb phosphorylation on serine 780; percentage of S phase cells ([2]; COV318, control siRNA-treated): significantly decreased; percentage of S phase cells ([2]; COV318, p16 knocked down by siRNA): not significantly decreased
C[C@@H](C1CC1)N1C(=O)C2(CC2)c2cnc(NC3CCN(S(=O)(=O)c4ccc(=O)[nH]c4)CC3)nc21 [Example B15, (S)-7′-(1-cyclopropylethyl)-2′-((1-((6-oxo-1,6-dihydropyridin-3-yl)sulfonyl)piperidin-4-yl)amino)spiro[cyclopropane-1,5′-pyrrolo[2,3-d]pyrimidin]-6′(7′H)-one] | – | ≤ 0.05 | –
CCN1CC(n2cc(S(=O)(=O)N3CCC(Nc4ncc5c(n4)N([C@@H](C)C4CC4)C(=O)C54CC4)CC3)cn2)C1 [Example B16, (S)-7′-(1-cyclopropylethyl)-2′-((1-((1-(1-ethylazetidin-3-yl)-1H-pyrazol-4-yl)sulfonyl)piperidin-4-yl)amino)spiro[cyclopropane-1,5′-pyrrolo[2,3-d]pyrimidin]-6′(7′H)-one] | – | ≤ 0.05 | –
O=C1N(c2cc3c(cc2Cl)CNCC3)c2nc(NC3CCN(S(=O)(=O)c4ncc[nH]4)CC3)ncc2C12CC2 [Example B18, 2′-((1-((1H-imidazol-2-yl)sulfonyl)piperidin-4-yl)amino)-7′-(7-chloro-1,2,3,4-tetrahydroisoquinolin-6-yl)spiro[cyclopropane-1,5′-pyrrolo[2,3-d]pyrimidin]-6′(7′H)-one] | – | ≤ 0.05 | –
CCn1cnc(S(=O)(=O)N2CCC(Nc3ncc4c(n3)N(c3cc(F)ccc3Cl)C(=O)C43CC3)CC2)c1 [Example B19, 7′-(2-chloro-5-fluorophenyl)-2′-((1-((1-ethyl-1H-imidazol-4-yl)sulfonyl)piperidin-4-yl)amino)spiro[cyclopropane-1,5′-pyrrolo[2,3-d]pyrimidin]-6′(7′H)-one] | – | ≤ 0.05 | –
CC(=O)c1c(C)c2cnc(Nc3ccc(N4CCNCC4)cn3)nc2n(C2CCCC2)c1=O [palbociclib] | > 3 | – | –
